{"source": "ChEMBL document CHEMBL5678800", "about": "(Mol Cancer Ther, 2009)", "key": {"IGF-1R-Sal": {"system": "IGF-1R-Sal", "assay": "In vivo inhibition of IGF-1R phosphorylation in mouse IGF-1R-Sal cells xenografted in nude mouse at 12.5 mg/kg, po administered for 8 to 24 hrs by Western blotting analysis", "assay_type": "functional, organism-based", "conditions": "time lower 8.0 hrs, time upper […]"}, "GEO [1]": {"system": "GEO", "assay": "Antitumor activity against human GEO cells xenografted in nude mouse assessed as tumor growth inhibition at 25 mg/kg, po administered for 3 days in presence of cetuximab at 0.25 mg/kg relative to control", "assay_type": "functional", "conditions": "72 h, time 3 day, read-out: TGI"}, "GEO [2]": {"system": "GEO", "assay": "Antitumor activity against human GEO cells xenografted in nude mouse assessed as tumor growth delay time at 6.25 mg/kg, po administered for 3 days in presence of cetuximab at 0.125 mg/kg relative to control", "assay_type": "functional", "conditions": "time 3 day"}, "Mus musculus [3]": {"system": "Mus musculus", "assay": "Anti-diabetic activity against nude mouse xenografted with mouse IGF-1R-Sal cells assessed as insulin level at 25 mg/kg, po administered for 2 hrs by ELISA analysis (Rvb= 0.39 +/- […])", "assay_type": "functional"}, "[4]": {"assay": "Toxicity in nude mouse xenografted with human GEO cells assessed as mortality at 12.5 mg/kg, po administered for 17 days relative to control", "assay_type": "organism-based", "conditions": "in vivo, time 17 day"}, "Rh41 [5]": {"system": "Rh41", "assay": "Antitumor activity against human Rh41 cells xenografted in nude mouse assessed as tumor growth inhibition at 3.1 to 25 mg/kg, po administered for 14 days relative to control", "assay_type": "functional", "conditions": "dose 3.1-25 mg/kg, time 14 day"}, "Mus musculus [6]": {"system": "Mus musculus", "assay": "Anti-diabetic activity against nude mouse xenografted with mouse IGF-1R-Sal cells assessed as insulin level at 12.5 mg/kg, po administered for 2 hrs by ELISA analysis (Rvb= 0.39 +/- […])", "assay_type": "functional"}, "GEO [7]": {"system": "GEO", "assay": "Antitumor activity against human GEO cells xenografted in nude mouse assessed as tumor growth delay time at 12.5 mg/kg, po administered for 17 days relative to control", "assay_type": "functional", "conditions": "time 17 day"}, "GEO [8]": {"system": "GEO", "assay": "Antitumor activity against human GEO cells xenografted in nude mouse assessed as tumor growth inhibition at 12.5 mg/kg, po administered for 17 days relative to control", "assay_type": "functional", "conditions": "408 h, time 17 day, read-out: TGI"}, "GEO [9]": {"system": "GEO", "assay": "Antitumor activity against human GEO cells xenografted in nude mouse assessed as tumor growth inhibition at 6.25 mg/kg, po administered for 3 days in presence of cetuximab at 0.125 mg/kg relative to control", "assay_type": "functional", "conditions": "72 h, time 3 day, read-out: TGI"}, "[10]": {"assay": "Toxicity in nude mouse xenografted with human GEO cells assessed as body weight loss at 12.5 mg/kg, po administered for 17 days", "assay_type": "organism-based", "conditions": "in vivo, 408 h, time 17 day"}, "Mus musculus [11]": {"system": "Mus musculus", "assay": "Anti-diabetic activity against nude mouse xenografted with mouse IGF-1R-Sal cells assessed as increased serum glucose level at 25 mg/kg, po administered for 2 hrs by oral glucose tolerance test (Rvb= 97.40 +/- 5.0 mg/dl)", "assay_type": "functional"}, "[12]": {"assay": "Toxicity in nude mouse xenografted with human GEO cells assessed as body weight loss at 6.25 mg/kg, po administered for 17 days", "assay_type": "organism-based", "conditions": "in vivo, 408 h, time 17 day"}, "GEO [13]": {"system": "GEO", "assay": "Antitumor activity against human GEO cells xenografted in nude mouse assessed as tumor growth delay time at 25 mg/kg, po administered for 3 days in presence of cetuximab at 0.125 mg/kg relative to control", "assay_type": "functional", "conditions": "time 3 day"}, "Rh41 [14]": {"system": "Rh41", "assay": "Induction of cell cycle arrest in human Rh41 cells assessed as accumulation of cells at G2/M phase at 10x IC50 incubated for 24 hrs by propidium iodide staining based flow cytometry analysis relative to control", "assay_type": "functional"}, "COLO 205": {"system": "COLO 205", "assay": "Antitumor activity against human COLO 205 cells xenografted in nude mouse assessed as tumor growth inhibition at 50 mg/kg, po administered for 23 days relative to control", "assay_type": "functional", "conditions": "COLO 205, 552 h, time 23 day, read-out: TGI"}, "GEO [15]": {"system": "GEO", "assay": "Antitumor activity against human GEO cells xenografted in nude mouse assessed as tumor growth inhibition at 25 mg/kg, po administered for 3 days in presence of cetuximab at 0.125 mg/kg relative to control", "assay_type": "functional", "conditions": "72 h, time 3 day, read-out: TGI"}, "[16]": {"assay": "Toxicity in nude mouse xenografted with human GEO cells assessed as mortality at 25 mg/kg, po administered for 3 days in presence of cetuximab at 0.25 mg/kg relative to control", "assay_type": "organism-based", "conditions": "in vivo, time 3 day"}, "JJN-3": {"system": "JJN-3", "assay": "Antitumor activity against human JJN-3 cells xenografted in nude mouse assessed as tumor growth inhibition at 25 mg/kg, po administered for 14 days relative to control", "assay_type": "functional", "conditions": "JJN-3, 336 h, time 14 day, read-out: TGI"}, "GEO [17]": {"system": "GEO", "assay": "Antitumor activity against human GEO cells xenografted in nude mouse assessed as tumor growth inhibition at 12.5 mg/kg, po administered for 3 days in presence of cetuximab at 0.125 mg/kg relative to control", "assay_type": "functional", "conditions": "72 h, time 3 day, read-out: TGI"}, "Mus musculus [18]": {"system": "Mus musculus", "assay": "Anti-diabetic activity against nude mouse xenografted with mouse IGF-1R-Sal cells assessed as insulin level at 3.125 mg/kg, po administered for 2 hrs by ELISA analysis (Rvb= 0.39 +/- […])", "assay_type": "functional"}, "Rh41 [19]": {"system": "Rh41", "assay": "Induction of cell cycle arrest in human Rh41 cells assessed as accumulation of cells at sub-G1 phase at 10x IC50 incubated for 24 hrs by propidium iodide staining based flow cytometry analysis (reference value: […])"}, "Mus musculus [20]": {"system": "Mus musculus", "assay": "Anti-diabetic activity against nude mouse xenografted with mouse IGF-1R-Sal cells assessed as increased serum glucose level at 12.5 mg/kg, po administered for 2 hrs by oral glucose tolerance test (Rvb= 97.40 +/- 5.0 mg/dl)", "assay_type": "functional"}, "[21]": {"assay": "Plasma concentration in nude mouse xenografted with mouse IGF-1R-Sal cells at 12.5 mg/kg, po administered for 2 hrs by LC-MS/MS analysis", "assay_type": "ADME, organism-based"}, "GEO [22]": {"system": "GEO", "assay": "Antitumor activity against human GEO cells xenografted in nude mouse assessed as tumor growth inhibition at 25 mg/kg, po administered for 17 days relative to control", "assay_type": "functional", "conditions": "408 h, time 17 day, read-out: TGI"}, "Rh41 [23]": {"system": "Rh41", "assay": "Induction of cell cycle arrest in human Rh41 cells assessed as accumulation of cells at G2/M phase at 10x IC50 incubated for 48 hrs by propidium iodide staining based flow cytometry analysis relative to control", "assay_type": "functional"}}, "note": "Activity calls are given as the source filed them. No cut-off for these calls is given here.", "data": [{"smiles": "C[C@@]1(C(=O)Nc2ccc(F)nc2)CCCN1c1nc(Nc2cc(C3CC3)n[nH]2)c2cccn2n1", "note": "[BMS-754807]", "values": [{"measurement": "inhibition", "setting": "IGF-1R-Sal", "value": "Active"}, {"measurement": "inhibition in vivo at 25 mg/kg", "setting": "GEO [1]", "value": 88, "unit": "%"}, {"measurement": "Time", "setting": "GEO [2]", "value": 20, "unit": "days"}, {"measurement": "Activity", "setting": "Mus musculus [3]", "value": 17.2, "unit": "ng/mL"}, {"measurement": "mortality at 408 h", "setting": "[4]", "value": 0, "unit": "%"}, {"measurement": "TGI", "setting": "Rh41 [5]", "value": 65, "unit": "%"}, {"measurement": "Activity", "setting": "Mus musculus [6]", "value": 5.1, "unit": "ng/mL"}, {"measurement": "Time", "setting": "GEO [7]", "value": 4, "unit": "days"}, {"measurement": "inhibition in vivo at 12.5 mg/kg", "setting": "GEO [8]", "value": 38, "unit": "%"}, {"measurement": "inhibition in vivo at 6.25 mg/kg", "setting": "GEO [9]", "value": 79, "unit": "%"}, {"measurement": "Activity", "setting": "[10]", "value": -0.8, "unit": "g"}, {"measurement": "Activity", "setting": "Mus musculus [11]", "value": 95, "unit": "mg/dL"}, {"measurement": "Activity", "setting": "[12]", "value": -0.4, "unit": "g"}, {"measurement": "Time", "setting": "GEO [13]", "value": 21, "unit": "days"}, {"measurement": "Activity", "setting": "Rh41 [14]", "value": 2.8, "unit": "%"}, {"measurement": "inhibition in vivo at 50 mg/kg", "setting": "COLO 205", "value": 53, "unit": "%"}, {"measurement": "inhibition in vivo at 25 mg/kg", "setting": "GEO [15]", "value": 89, "unit": "%"}, {"measurement": "mortality at 72 h", "setting": "[16]", "value": 0, "unit": "%"}, {"measurement": "inhibition in vivo at 25 mg/kg", "setting": "JJN-3", "value": 53, "unit": "%"}, {"measurement": "inhibition in vivo at 12.5 mg/kg", "setting": "GEO [17]", "value": 86, "unit": "%"}, {"measurement": "Activity", "setting": "Mus musculus [18]", "value": 2, "unit": "ng/mL"}, {"measurement": "Activity", "setting": "Rh41 [19]", "value": 23.1, "unit": "%"}, {"measurement": "Activity", "setting": "Mus musculus [20]", "value": 89, "unit": "mg/dL"}, {"measurement": "concentration at 2 h", "setting": "[21]", "value": 29, "unit": "nM"}, {"measurement": "inhibition in vivo at 25 mg/kg", "setting": "GEO [22]", "value": 61, "unit": "%"}, {"measurement": "Activity", "setting": "Rh41 [23]", "value": 2.8, "unit": "%"}]}]}
